Consider 17 compounds from patent publication US4835168A, “Thiadiazole antiviral agents” (Eli Lilly and Company, priority 1988, dated 1989).

Values after ≈ are worked out from the molar mass of the structure shown. “Also recorded” adds a separate entry of the source. Structures can show the parent of a compound that is named as a salt. Where two headings read alike, the source gives them in different places.

By IC50 is commonly meant the concentration that gives 50% inhibition.

The conditions of series [1]: Malinoski et al., Virology 1981; cited from earlier work.
The next series relates to Semliki Forest. Description: plaque-reduction test (Table V). Type of series: cell-based. Conditions: BSCl cells, read-out: IC50, inhibition of plaque formation by 50 percent.
A further series has as its system Parainfluenza (type 3). Description: plaque-reduction test (Table V). Type of series: cell-based. Conditions: read-out: IC50, inhibition of plaque formation by 50 percent. For orientation: In a plaque reduction assay, fewer plaques than in the control indicate reduced infectivity or spread.
Another series concerns Herpes I. Description: plaque-reduction test (Table V). The settings on record: BSCl cells, read-out: IC50, inhibition of plaque formation by 50 percent. The class given is cell-based.
Series [2] relates to influenza A1-Ann Arbor strain. Description: in vivo mouse influenza test, survival index, relative activity (Table I). Conditions: CD-1 mice, 10 days.
The test system of a further series is RSV. Description: in vivo antiviral test in hamster (Table IV). The settings on record: reduction in nasal washing virus titer vs control. On the procedure: (§1) As previously mentioned, in vivo antiviral test results may vary due to numerous factors. […] The compounds of Examples 1 and 7 were tested against several different viruses using different kinds of test animals and different modes of oral and topical administration. In Table IV below, Column 1 indicated the test compound, while Column 2 discloses the virus the compound was employed against. Columns 3 and 4 describe the test animal and the method of administration, respectively. Finally, Column 5 discloses whether or not antiviral activity was shown.

A short description of series [3]: in vivo conversion to salt form of the compound of Example 6.
Series [4] deals with influenza Al-Ann Arbor. Description: plaque-reduction study in MDCK cells (Table III). Type of series: cell-based. The settings on record: for IC50: MDCK, read-out: IC50, inhibition of plaque formation by 50 percent.
The test system of series [5] is influenza B-Great Lake. Description: plaque-reduction study in MDCK cells (Table III). Type of series: cell-based. Conditions: for IC50: MDCK, read-out: IC50, inhibition of plaque formation by 50 percent.
A further series deals with Vaccinia. Description: microbe, parasite or virus in culture. Type of series: cell-based. Conditions: Orthopoxvirus vaccinia, read-out: IC50, inhibition of plaque formation by 50 percent.
Another series deals with HSV I. Description: in vivo antiviral test in mouse (Table IV). The settings on record: drinking water, more survivors than control. On the procedure: as §1
The next series deals with influenza A-NWS. Description: plaque-reduction study in MDCK cells (Table III). Type of series: cell-based. Conditions: values marked *: one discordant test >50 not incorporated; for IC50: MDCK, read-out: IC50, inhibition of plaque formation by 50 percent.
The test system of a further series is Herpes II. Description: plaque-reduction test (Table V). The class given is cell-based. Conditions: BSCl cells, read-out: IC50, inhibition of plaque formation by 50 percent.
For a further series, the system named is Friend Leukemia. Description: preliminary testing against retroviruses.
A further series relates to HIV. Description: preliminary testing against retroviruses.
Series [6] relates to Vesicular Stomatitus Virus. Description: in vitro activity against Vesicular Stomatitus Virus. The class given is cell-based.
A further series has as its system HSV II. Description: in vivo antiviral test in guinea pig (Table IV). The settings on record: topical cream, fewer lesions than control. As for the experimental part: as §1
In a further series the test system is influenza A-Texas. Description: survival of infected mice, oral in diet (Table II). The settings on record: control 8/36. Type of series: in vivo. The text has this: (§2) Again, due to the nature of in vivo antiviral tests the in vivo antiviral influenza activity of the compounds can vary. […] A typical test would run for at least ten days.
Another series relates to influenza B-Taiwan. Description: survival of infected mice, oral in diet (Table II). Type of series: in vivo. Conditions: control 1/36.
Description: as §2

For the next series, the system named is influenza B-Maryland. Description: survival of infected mice, oral in diet (Table II). Type of series: in vivo. The settings on record: control 14/50.
Description: as §2

Another series deals with influenza A-Brazil. Description: survival of infected mice, oral in diet (Table II). The class given is in vivo. The settings on record: control 10/28.
Description: as §2

The test system of another series is influenza B-Hong Kong. Description: survival of infected mice, oral in diet (Table II). The class given is in vivo. The settings on record: control 4/50.
Description: as §2

Series [7] deals with influenza B-Great Lake. Description: survival of infected mice, oral in diet (Table II). The class given is in vivo. The settings on record: control 3/36.
Description: as §2

Series [8] has as its system influenza Al-Ann Arbor. Description: survival of infected mice, oral in diet (Table II). Conditions: control 0/50. The class given is in vivo.
Description: as §2

Consider `Nc1nncs1` [2-amino-1,3,4-thiadiazole], for which, in series [1], the antiviral activity entry is reported as “certain antiviral activity”.

For `CSC(N)=Nc1nncs1` [Example 1, N^1-1,3,4-thiadiazol-2-ylcarbamimidothioic acid, methyl ester], the IC50 is 43 µg/mL (≈ 247 µM) in the series with Semliki Forest; 4.5 µg/mL (≈ 25.8 µM) in the series on Parainfluenza (type 3) (BSCl cells); over 25 µg/mL in the series on Parainfluenza (type 3) (HELA cells); 9.6 µg/mL (≈ 55.1 µM) with Herpes I; 0.68 µg/mL (≈ 3.9 µM) in the series on influenza Al-Ann Arbor [4]; 16.3 µg/mL (≈ 93.5 µM) in the series with influenza B-Great Lake [5]. In addition, in the series on Vaccinia, the IC50 turned out to be 15.8 µg/mL (≈ 90.7 µM). Further, the “RA (relative activity index from P, percent of maximum survival index)” value in series [2] is reported as 5 (80-100% = 5 (very active)). In addition, the “antiviral activity shown (Result)” value in the series on RSV (drinking water) and with HSV I was “active” in each case. The “conversion in vivo to a salt form of the compound of Example 6” value in [3] is reported as “converted to a salt form of the compound of Example 6; also recorded: converted in vivo to a salt form”.

For the compound `CCSC(N)=Nc1nncs1` [Example 2, N^1-1,3,4-thiadiazol-2-ylcarbamimidothioic acid, ethyl ester], the values for the IC50 in the series with influenza A-NWS and with influenza B-Great Lake [5] were 18.9 µg/mL (≈ 100 µM) and 9.5 µg/mL (≈ 50.5 µM), respectively. In [2], the “RA (relative activity index from P, percent of maximum survival index)” value is on record as 5 (80-100% = 5 (very active)).

For the compound `CCCCSC(N)=Nc1nncs1` [Example 3, N^1-1,3,4-thiadiazol-2-ylcarbamimidothioic acid, n-butyl ester], the figures for the IC50 in the series with influenza A-NWS and with influenza B-Great Lake [5] were 21.3 µg/mL (≈ 98.5 µM) and over 50 µg/mL, respectively. Further, in [2], the “RA (relative activity index from P, percent of maximum survival index)” value was 5 (80-100% = 5 (very active)).

On to `NC(=Nc1nncs1)SCc1ccccn1` [Example 4, N^1-1,3,4-thiadiazol-2-ylcarbamimidothioic acid, 2-pyridinylmethyl ester, hydrochloride], for which the IC50 in the series on influenza A-NWS and with influenza B-Great Lake [5] was over 50 µg/mL in each case. In series [2], the “RA (relative activity index from P, percent of maximum survival index)” value is reported as 2.5.

In the case of `N#CCSC(N)=Nc1nncs1` [Example 5, N^1-1,3,4-thiadiazol-2-ylcarbamimidothioic acid, cyanomethyl ester], the “RA (relative activity index from P, percent of maximum survival index)” value in series [2] stood at 2.5.

Take `N#CNc1nncs1` [Example 6, 1,3,4-Thiadiazole-2-cyanamide]: the IC50 with influenza A-NWS was determined as 0.78 µg/mL (≈ 6.18 µM); in the series on influenza Al-Ann Arbor [4], 0.85 µg/mL (≈ 6.74 µM). The “IC50, inhibition of plaque formation by 50 percent” value in the series with influenza B-Great Lake [5] worked out at 2.25 MCG/ML.

Consider `N#CNc1nncs1` [Example 7, 1,3,4-Thiadiazole-2-cyanamide Sodium salt], for which the IC50 is under 0.23 µg/mL in the series with Semliki Forest; 0.14 µg/mL in the series on Parainfluenza (type 3) (BSCl cells); 0.72 µg/mL in the series with Parainfluenza (type 3) (HELA cells); 0.19 µg/mL in the series with Herpes II; 2.95 µg/mL with Herpes I; 0.29 µg/mL in the series on Vaccinia (Vero). Besides, the IC50 with Vaccinia is under 0.31 µg/mL. The “IC50, inhibition of plaque formation by 50 percent” value with influenza A-NWS (Sodium salt) came out at 0.58 MCG/ML; in the series with influenza Al-Ann Arbor [4] (Sodium salt) it was 0.82 MCG/ML; in the series with influenza B-Great Lake [5] (Sodium salt), 1.00 MCG/ML. For the same compound, the “antiviral activity shown (Result)” value with RSV (food), in the series with HSV II and in the series on HSV I was “active” each time. Moreover, the activity against retroviruses entry with Friend Leukemia and in the series on HIV was “failed to demonstrate conclusive activity” each time. The “in vitro activity against Vesicular Stomatitus Virus” value in series [6] is “does not”.

As for `NC(N)=Nc1nncs1` [Example 8, 1,3,4-Thiadiazole-2-guanidine], the IC50 was found to be 0.02 µg/mL (≈ 0.14 µM) with influenza Al-Ann Arbor [4] and 0.27 µg/mL (≈ 1.89 µM) with influenza B-Great Lake [5].

In the case of `CCOC(=O)NC(=S)Nc1nncs1` [Preparation 1, [(1,3,4-Thiadiazol-2-ylamino)thioxomethyl]carbamic acid, ethyl ester], the IC50 with influenza A-NWS is 43 µg/mL (≈ 185 µM); with influenza B-Great Lake [5], over 50 µg/mL. In series [2], the “RA (relative activity index from P, percent of maximum survival index)” value is given as 4.5.

Regarding `NC(=S)Nc1nncs1` [Preparation 2, 1,3,4-Thiadiazol-2-ylthiourea], the results for the IC50 in the series with influenza A-NWS, in the series with influenza Al-Ann Arbor [4] and in the series with influenza B-Great Lake [5] were 3.6 µg/mL (≈ 22.5 µM), over 50 µg/mL and 7 µg/mL (≈ 43.7 µM), respectively. Besides, the “number of animals surviving over number tested (S/N)” value (“number … over number tested (S/N)” below) in the series on influenza A-Texas (15 mg/kg/day) is 5/18; in the series with influenza A-Texas (30 mg/kg/day), 8/18; with influenza A-Texas (60 mg/kg/day), 12/18; in the series on influenza A-Texas (120 mg/kg/day) it was 16/18; in the series with influenza B-Taiwan (15 mg/kg/day), 4/18; in the series with influenza B-Taiwan (30 mg/kg/day), 15/18. Moreover, the “number … over number tested (S/N)” value was 18/18 in the series on influenza B-Taiwan (60 mg/kg/day); 18/18 in the series on influenza B-Taiwan (120 mg/kg/day); 19/20 in the series on influenza B-Maryland (60 mg/kg/day); 20/20 in the series with influenza B-Maryland (120 mg/kg/day); 5/15 in the series with influenza A-Brazil (15 mg/kg/day); 5/16 in the series on influenza A-Brazil (30 mg/kg/day). Moreover, the “number … over number tested (S/N)” value in the series on influenza A-Brazil (60 mg/kg/day) was 12/18; in the series on influenza A-Brazil (120 mg/kg/day), 14/18; in the series on influenza B-Hong Kong (60 mg/kg/day), 10/20; in the series with influenza B-Hong Kong (120 mg/kg/day), 16/20; in the series on influenza B-Great Lake [7] (15 mg/kg/day), 11/18; with influenza B-Great Lake [7] (30 mg/kg/day), 16/18. In addition, the “number … over number tested (S/N)” value is given as 17/18 in the series on influenza B-Great Lake [7] (60 mg/kg/day), 18/18 in the series with influenza B-Great Lake [7] (120 mg/kg/day), 20/20 with influenza Al-Ann Arbor [8] (60 mg/kg/day) and 20/20 in the series with influenza Al-Ann Arbor [8] (120 mg/kg/day). Also, the “in vitro activity against Vesicular Stomatitus Virus” value in [6] was “displays in vitro activity”.

As to `O=C(NC(=S)Nc1nncs1)Oc1ccccc1` [Preparation 3, [(1,3,4-Thiadiazol-2-ylamino)thioxomethyl]carbamic acid, phenyl ester], the IC50 in the series with influenza A-NWS is under 1.6 µg/mL. The “RA (relative activity index from P, percent of maximum survival index)” value in [2] is 5 (80-100% = 5 (very active)).

With `CCCCCCOC(=O)NC(=S)Nc1nncs1` [Preparation 4, [(1,3,4-Thiadiazol-2-ylamino)thioxomethyl]carbamic acid, n-hexyl ester], the “RA (relative activity index from P, percent of maximum survival index)” value in [2] is recorded as 5 (80-100% = 5 (very active)).

`COC(=O)NC(=S)Nc1nncs1` [Preparation 5, [(1,3,4-thiadiazol-2-ylamino)thioxomethyl]carbamic acid, methyl ester]: the “RA (relative activity index from P, percent of maximum survival index)” value in [2] is 5 (80-100% = 5 (very active)).

Turning to `C=COC(=O)NC(=S)Nc1nncs1` [Preparation 6, [(1,3,4-thiadiazol-2-ylamino)thioxomethyl]carbamic acid, vinyl ester], in series [2], the “RA (relative activity index from P, percent of maximum survival index)” value is 4 (60-80% = 4 (good activity)).

On to `CCOC(=O)N=C(Nc1nncs1)SC` [Preparation 7, [(Methylthio)(1,3,4-thiadiazol-2-ylamino)methyl]carbamic acid, ethyl ester], for which the IC50 with influenza A-NWS worked out at 75.5 µg/mL (≈ 307 µM). In addition, in series [2], the “RA (relative activity index from P, percent of maximum survival index)” value is 5 (80-100% = 5 (very active)).

In the case of `CCOC(=O)N=C(Nc1nncs1)SCC` [Preparation 8], in the series with influenza A-NWS, the IC50 was over 50 µg/mL. The “RA (relative activity index from P, percent of maximum survival index)” value in [2] is 5 (80-100% = 5 (very active)).
